Results taken from the NIST ThermoML archive (doi:10.1021/je900193m).

Assay: xn = mol fraction of the nth substance listed
Conditions: 101 kPa, Liquid, holographic inferometry, x1 = 0

CCOC(=O)OCC [diethyl carbonate] + CCCCCCC
Conditions	binary diffusion coefficient [m2/s]
278.15 K	3.93e-09
281.15 K	3.96e-09
284.15 K	3.99e-09
287.15 K	4.02e-09
290.15 K	4.08e-09
293.15 K	4.14e-09
296.15 K	4.19e-09
299.15 K	4.27e-09
302.15 K	4.32e-09
305.15 K	4.4e-09
308.15 K	4.47e-09
311.15 K	4.54e-09
314.15 K	4.62e-09
317.15 K	4.7e-09
320.15 K	4.8e-09
323.15 K	4.88e-09
326.15 K	4.97e-09
329.15 K	5.07e-09
332.15 K	5.15e-09
335.15 K	5.25e-09
338.15 K	5.35e-09

COC(=O)OC [dimethyl carbonate] + CCCCCCC
Conditions	binary diffusion coefficient [m2/s]
278.15 K	4.93e-09
281.15 K	4.97e-09
284.15 K	5.01e-09
287.15 K	5.07e-09
290.15 K	5.13e-09
293.15 K	5.19e-09
296.15 K	5.25e-09
299.15 K	5.33e-09
302.15 K	5.39e-09
305.15 K	5.48e-09
308.15 K	5.55e-09
311.15 K	5.63e-09
314.15 K	5.71e-09
317.15 K	5.8e-09
320.15 K	5.9e-09
323.15 K	5.99e-09
326.15 K	6.09e-09
329.15 K	6.2e-09
332.15 K	6.29e-09
335.15 K	6.41e-09
338.15 K	6.52e-09

CCOC(=O)CCCCC(=O)OCC [diethyl hexanedioate] + CCCCCCC
Conditions	binary diffusion coefficient [m2/s]
278.15 K	1.93e-09
281.15 K	1.96e-09
284.15 K	1.99e-09
287.15 K	2.02e-09
290.15 K	2.06e-09
293.15 K	2.1e-09
296.15 K	2.15e-09
299.15 K	2.2e-09
302.15 K	2.25e-09
305.15 K	2.31e-09
308.15 K	2.37e-09
311.15 K	2.43e-09
314.15 K	2.49e-09
317.15 K	2.56e-09
320.15 K	2.62e-09
323.15 K	2.7e-09
326.15 K	2.78e-09
329.15 K	2.85e-09
332.15 K	2.92e-09
335.15 K	3.02e-09
338.15 K	3.11e-09
